The values below come from US9080173B2, “Methods and compositions for RNAi-based cancer treatment” (SILENSEED LTD., priority 2012, dated 2015).

d = 2'-deoxy (DNA); r = 2'-OH (RNA)

One series deals with Panc1-LUC tumors. The series is described as follows: Survival of SCIDbg mice with s.c. Panc1-LUC tumors. Particulars: 4 μg siG12D in 200 μl PBS i.p. weekly; over 41 days. The series is classed as in vivo. How it is done:
Mice were injected s.c. with 10×10^6 Panc1-LUC tumor cells in a total volume of 100 μl PBS, or into the tail of the pancreas with 10^6 cells in a total volume of 30 μl PBS.
In another experiment, 30 SCIDbg mice were injected s.c. with Panc1-LUC tumor cells, and were divided into 4 groups: (a) siG12D-DDD (12 μg siG12D per DDD)—2 DDD placed in each mouse; (b) empty DDD—2 DDD placed in each mouse; (c) 4 μg siG12D in 200 μl PBS injected intraperitoneally (i.p.) on a weekly basis; and (d) untreated. Tumor development was measured by caliper and Luciferase measurements. […] The difference in survival was statistically significant (p<0.05 compared to the other 3 groups).

In another series the test system is Panc1 cells. The series is described as follows: Methylene Blue viability test of transfected Panc1 cells, alone and with Gemzar. The series is classed as cell-based. As to conditions: 72h post-transfection; 1 hr of treatment with 10 μM Gemzar. The method, then: FIG. 7. Gemzar® enhances siG12D-DDD effect. Panc1 cells were transfected using Lipofectamine™ with unmodified and modified siG12D and a scrambled (non-targeting) siRNA control molecule or were mock transfected (no siRNA). Cell viability was assessed 72 hrs post-transfection by the Methylene Blue (MB) test. Additional groups were transfected as described above, followed by 1 hr of treatment with 10 μM Gemzar®. The numbers 1-4 in the last column relate to the percent of inhibition of cellular growth, wherein the inhibition seen with the unmodified siRNA was assigned the value of 100%. 4, 3, 2, and 1 refer respectively to 75-100%, 50-75%, 25-50%, and 0-25% of the inhibition seen with the unmodified siRNA.
Experimental procedure: Panc1 cells were transfected using Lipofectamine™ with unmodified and modified siG12D and a scrambled (non-targeting) siRNA control molecule or were mock transfected (no siRNA). Cell viability was assessed 72 hrs post-transfection by the Methylene Blue (MB) test. Additional groups were transfected as described above, followed by 1 hr of treatment with 10 μM Gemzar®. At the exemplary time point of 72h, Gemzar® enhanced the effect of siG12D by nearly 10%. […] Other time points, for example 48h, 72h, 96h and 120h, may be utilized in additional studies.

Substance “sense GUUGGAGCUGAUGGCGUAGdTdT (SEQ ID No: 41), antisense CUACGCCAUCAGCUCCAACdTdT (SEQ ID No: 42) (sense GUUGGAGCUGAUGGCGUAGTT; antisense CUACGCCAUCAGCUCCAACTT; sugars from the 5' end r19 d2, backbone not given here) [siG12D, unmodified siRNA against G12D-mutated K-ras]” showed a survival rate in the series with Panc1-LUC tumors of 33.33%. Besides, the “enhancement of the effect of siG12D on cell viability by Gemzar” value in the series with Panc1 cells is on record as approximately 10%.
